Assay results taken from patent US20060154243A1 (priority 2003, published 2006).

What was measured:
[1] = tested on: rabbit serum obtained by immunizing with SARS-CoV strain Frankfurt 1; type: binding
[2] = tested on: sera SARS-green, SARS-yellow, 1a, 1b, 2, 6, 37, 62 and London; type: binding, human
two control sera = type: binding, human
[3] = tested on: serum 1a (individual 1, early serum); type: binding, human
[4] = tested on: serum 1b (individual 1, late serum); type: binding, human
serum 2 (individual 2) = type: binding, human
serum 6 (individual 6) = type: binding, human
serum 37 (individual 37) = type: binding, human
serum 62 (individual 62) = type: binding, human
serum London = type: binding, human
serum SARS-yellow = type: binding, human
serum SARS-green = type: binding, human
[5] = tested on: control serum LUMC (pooled serum of ten healthy hospital workers); type: binding, human
[6] = tested on: control serum Blood-bank (commercial negative donor pooled serum); type: binding, human

Row | Sequence | Rabbit serum linear peptides [1] | Rabbit serum looped peptides [1] | Recognition of the peptide by sera of individuals infected by SARS-CoV, form recognized [2] | Recognition by at least one of the control sera (two control sera) | Binding of serum 1a to linear peptides of Orf14 of SARS-CoV TOR2 [3] | Binding of serum 1b to linear peptides of Orf14 of SARS-CoV TOR2 [4] | Binding of serum 2 to linear peptides of Orf14 of SARS-CoV TOR2 (serum 2 (individual 2)) | Binding of serum 6 to linear peptides of Orf14 of SARS-CoV TOR2 (serum 6 (individual 6)) | Binding of serum 37 to linear peptides of Orf14 of SARS-CoV TOR2 (serum 37 (individual 37)) | Binding of serum 62 to linear peptides of Orf14 of SARS-CoV TOR2 (serum 62 (individual 62)) | Binding of serum London to linear peptides of Orf14 of SARS-CoV TOR2 (serum London) | Binding of serum SARS-yellow to linear peptides of Orf14 of SARS-CoV TOR2 (serum SARS-yellow) | Binding of serum SARS-green to linear peptides of Orf14 of SARS-CoV TOR2 (serum SARS-green) | Control serum LUMC linear peptides [5] | Control serum LUMC looped peptides [5] | Control Serum Blood-Bank Looped peptides [6] | Control serum Blood-bank linear peptides [6]
1 | TNVVPPALHLVDPQI | 0.1 | 0.5 | recognized in linear and in looped form | recognized by at least one of the control sera |  |  |  |  |  |  |  |  |  |  |  |  | 
2 | CTVVQRCASNKPHVL | 1.7 | 1.0 | recognized in linear and in looped form | recognized by at least one of the control sera |  |  |  |  |  |  |  |  |  |  |  |  | 
3 | TVVQRCASNKPHVLE | 0.7 | 0.3 | recognized in linear and in looped form | recognized by at least one of the control sera |  |  |  |  |  |  |  |  |  |  |  |  | 
4 | ICTVVQRCASNKPHV | 0.3 | 0.4 | recognized in linear and in looped form | recognized by at least one of the control sera |  |  |  |  |  |  |  |  |  |  |  |  | 
5 | LKEQHCQKASTQREA |  |  | recognized in looped form |  | 0.3 | 0.2 | 0.4 | 0.2 | 0.4 | 0.2 | 0.3 | 0.3 | 0.1 | 0.3 | 0.9 | 0.9 | 0.3
6 | YNFLKEQHCQKASTQ |  |  | recognized in looped form |  | 0.5 | 0.4 | 0.5 | 0.5 | 0.6 | 0.5 | 0.7 | 0.3 | 0.5 | 0.5 | 0.5 | 0.7 | 0.5
7 | NVVPPALHLVDPQIQ | 0.1 | 0.5 | recognized in linear and in looped form | recognized by at least one of the control sera |  |  |  |  |  |  |  |  |  |  |  |  | 
8 | FLKEQHCQKASTQRE |  |  | recognized in looped form |  | 0.3 | 0.3 | 0.3 | 0.2 | 0.4 | 0.3 | 0.3 | 0.2 | 0.1 | 0.3 | 1.1 | 0.9 | 0.4
9 | LPPCYNFLKEQHCQK |  |  | recognized in looped form |  | 0.3 | 0.2 | 0.2 | 0.2 | 0.3 | 0.2 | 0.1 | 0.0 | 0.0 | 0.2 | 0.6 | 0.9 | 0.2
10 | VPPALHLVDPQIQLT | 1.0 | 0.4 | recognized in linear and in looped form | recognized by at least one of the control sera |  |  |  |  |  |  |  |  |  |  |  |  | 
11 | EQHCQKASTQREAEA |  |  | recognized in looped form |  | 0.4 | 0.4 | 0.6 | 0.4 | 0.5 | 0.3 | 0.5 | 0.4 | 0.3 | 0.4 | 0.8 | 0.9 | 0.5
12 | HCQKASTQREAEAAV |  |  | recognized in looped form |  | 0.6 | 0.5 | 0.9 | 0.6 | 0.7 | 0.7 | 0.7 | 0.6 | 0.4 | 0.6 | 0.8 | 0.9 | 0.5
13 | STQREAEAAVKPLLA |  |  | recognized in looped form |  | 0.5 | 0.3 | 0.5 | 0.5 | 0.6 | 0.4 | 0.4 | 0.5 | 0.4 | 0.6 | 1.2 | 1.2 | 0.6
14 | PCYNFLKEQHCQKAS |  |  | recognized in looped form |  | 0.3 | 0.2 | 0.1 | 0.3 | 0.4 | 0.1 | 0.2 | 0.1 | 0.1 | 0.1 | 0.5 | 0.7 | 0.0
15 | VVPPALHLVDPQIQL | 1.2 | 0.4 | recognized in linear and in looped form | recognized by at least one of the control sera |  |  |  |  |  |  |  |  |  |  |  |  | 
